Reference: US10208007B2, “Use of strigolactones and strigolactone analogs for treating proliferative conditions” (The State of Israel, Ministry of Agriculture & Rural …, priority 2011, dated 2019)
Values joined by “and” are separate entries in the source; they are usually repeats but may differ in a detail not shown here. Equal entries are not always repeated.

Experiments:
DU145 = assay: XTT viability assay; assay type: cell-based, human; details: DU145, 3 days
Protocol: (§1) Viability was assayed after 3 days (XTT, ATCC). IC50 concentrations are indicated (Table 3 above).

K562 = assay: XTT viability assay; assay type: cell-based, human; details: K562, 3 days
Protocol: as §1

HT-29 = assay: XTT viability assay; assay type: cell-based, human; details: HT-29, 3 days
Protocol: as §1

MDA-MB-231 = assay: XTT viability assay; assay type: cell-based, human; details: for IC50 at 72 h: MDA-MB-231, 3 days
Protocol: as §1

PC3 = assay: XTT viability assay; assay type: cell-based, human; details: PC3, 3 days
Protocol: as §1

SW480 = assay: XTT viability assay; assay type: cell-based, human; details: SW480, 3 days
Protocol: as §1

T47D = assay: XTT viability assay; assay type: cell-based, human; details: 3 days
Protocol: as §1

LNCaP = assay: XTT viability assay; assay type: cell-based, human; details: 3 days
Protocol: as §1

HCT116 = assay: XTT viability assay; assay type: cell-based, human; details: HCT116, 3 days
Protocol: as §1

MCF-7 = assay: XTT viability assay; assay type: cell-based, human; details: MCF-7, 3 days
Protocol: as §1

U20S = assay: XTT viability assay; assay type: cell-based, human; details: 3 days
Protocol: as §1

MCF10A = details: 3 days
Protocol: Results are presented as Average±SD of replicate analyses and are either representative of, or inclusive of at least two independent experiments. Statistical analyses were performed using student's t-test (2-tailed, paired) versus vehicle controls and are regarded as being significant when P<0.05(*). Higher powers (p<0.01, p<0.001) are also employed and indicated in each figure legend. IC50 doses for strigolactone analogs were calculated by interpolation of the sigmoidal dose response curves (Graphpad Prism 4.0 software). Briefly, linear regression was performed between relevant y-axis data points and interpolation calculated for x-axis unknowns.
Cells were seeded into a 96 well plates at 1500 cells per well (MCF-10, PC3, DU145, MDA-MB-231, MDA-MB-436, HT-29, SW480), 1000 cells per well (K562) or 4000 cells per well (MCF-7, HCT116) in triplicate in normal growing media (with the exception of K562, a non-adherent leukemic cell line which was seeded in phenol-free DMEM supplemented with 10% charcoal-stripped FBS). The following day media was replaced with phenol-free DMEM supplemented with 10% charcoal stripped FBS and the indicated final concentrations of strigolactone analog or vehicle (acetone) alone. Cells were incubated for 3 days, at which time XTT (2,3,-bis(2-methoxy-4-nitro-5-sulfophenyl)-5-[(phenylamino)-carbonyl]-2H-tetrazolium inner salt) reduction was used to quantify viability according to manufacturer's instruction (ATCC). Cells were incubated with XTT reagent for 2-3 hours at 37° C. in a humidified 5% CO2-95% air atmosphere. Absorbance was recorded by a photometer [sequence]luor Plus, Tecan (Salzburg, Austria) at 450 nm with 750 nm of reference wavelength. Cell survival was estimated from the equation: % cell survival=100×(At−Ac), where At and Ac are the absorbencies (450 nm) of the XTT colorimetric reaction (ATCC) in treated and control cultures respectively minus non-specific absorption measured at 750 nm. Absorbance of medium alone was also deducted from specific readings.
MCF-10A cells were included as an example of a non-tumorigenic line. XTT viability assays were carried out in the presence of the indicated doses of strigolactone analogs following 3 days of treatment. Resulting differences in absorbance readings following strigolactone analogs treatment reflect changes in proliferation and cell survival (FIG. 7A-C): Cells were seeded into 96 well plates in normal growing media. The following day media was replaced with phenol-free DMEM supplemented with 10% charcoal-stripped serum and the indicated doses of strigolactone analog or vehicle (cont.) alone. Viability was assayed after 3 days (XTT, ATCC).

CYCB1 = assay: Gene transcription level by quantitative PCR: CYCB1; assay type: in vivo, Arabidopsis thaliana; details: for CYCB1 transcription level versus controls: 3 μM
Protocol: Seeds of homozygous lines of Arabidopsis thaliana wild type (WT; Columbia; Col-0) and max2-1 mutant (http://abrc.osu.edu/) were surface-sterilized and germinated on 1/2 Murashige and Skoog (MS) plates supplemented with 1% sucrose and solidified with 0.7% agar. Plates were incubated vertically in the dark at 4° C. for two days to synchronize germination. Three days after germination, seedlings were gently transferred using forceps to 1/2 MS plates containing various concentrations of GR-24 as a mixture of four diastereomers: (±)-GR-24 and (±)-2'-epi-GR-24. The root tip of the transferred seedling was marked on the plates. The plates remained unsealed to prevent accumulation of gases (e.g., ethylene), and were positioned in an upright 45° position, and incubated at 22° C. with a light intensity of […] photons m-2 s-1 provided by white fluorescent tubes and under a photoperiod of 16 hours exposure to light/8 hours in the dark for 6-12 days. GR-24 treatments were conducted at concentrations ranging from 2.7×10^-6 to 13.5×10^-6 M. […] GR-24, ST-357 and ST-362 were initially dissolved in acetone to give a 4.5 mM, 10 μM and 10 μM solutions, respectively, which were then further diluted with double-distilled sterile water (DDW). […] In each of the experiments, non-treated roots were compared to the respective acetone control. Where no difference was observed between the various controls, non-treated roots are shown. Where differences were recorded between non-treated and acetone controls, the comparison was made between GR-24, ST-357 and ST-362-treated and acetone-treated roots. RNA was extracted from seedlings grown and treated as described in Example 1. Quantitative PCR was performed by amplifying fragments of genes of interest (Tables 6 & 7). Arabidopsis 15S ribosomal RNA (GenBank accession no. AT1G04270.1) served as the reference gene for the amount of RNA, and was amplified using specific primers (forward) [NT] and (reverse) [NT]. The experiment was performed in 5-6 biological replicates; each replicate included 8 plants, on which 3 technical repeats were performed. Means and standard error were determined from all biological replicates. Primers were designed using PrimerQuest software (Integrated DNA Technologies). RNA was extracted using Trizol (Invitrogen, Carlsbad, Calif., USA) using the manufacturer's protocol. 1 μg RNA was reverse-transcribed in a total volume of 20 μl using the Superscript First strand cDNA synthesis kit (Invitrogen). PCR was performed in triplicate using an ABI-Prism 7900 instrument (Applied Biosystems, Foster City, Calif.) and SYBR Green I detection (Applied Biosystems) according to the manufacturer's protocol. The expression of each target gene was normalized to the expression of GAPDH RNA and is presented as the ratio of the target gene to GAPDH RNA, expressed as 2-ΔCt, where Ct is the threshold cycle and ΔCt=[NT] GAPDH.

IC50 at 72 h (DU145)	IC50 at 72 h (K562)	IC50 at 72 h (HT-29)	IC50 at 72 h (MDA-MB-231)	IC50 at 72 h (PC3)	IC50 at 72 h (SW480)	IC50 at 72 h (T47D)	IC50 at 72 h (LNCaP)	IC50 at 72 h (HCT116)	IC50 at 72 h (MCF-7)	SMILES	IC50 at 72 h (U20S)	IC50 at 72 h (MCF10A)	CYCB1 transcription level versus controls (CYCB1; WT seedlings)	CYCB1 transcription level versus controls (CYCB1; max2-1 seedlings)	CYCB1 transcription relative to controls (CYCB1; root tips, 2.7 μM)	CYCB1 transcription in comparison to controls (CYCB1; root tips, 13.5 μM)	IC20 concentration (MDA-MB-231; MDA-231, XTT)
>15 ppm	>15 ppm	>15 ppm	7.5 ppm	>15 ppm	>15 ppm	8.8 ppm	13 ppm	>15 ppm	17.5 ppm	CC1=CC(O/C=C2\Cc3c(n(C)c4ccccc34)C2=O)OC1=O (racemic) [EG-5, (±) (2E)-4-methyl-2-(4-methyl-5-oxo-2,5-dihydrofuran-2-yloxymethylene)-1,4-dihydro-2H-cyclopenta[b]indol-3-one]	3.9 ppm	>15 ppm					
12.8 ppm	8.1 ppm	8.2 ppm	3.9 ppm	8.8 ppm	9.7 ppm	5.0 ppm	12 ppm	12.8 ppm	>12.8 ppm	CC1=CC(O/C=C2\Cc3c(n(C)c4cc(-c5cccs5)ccc34)C2=O)OC1=O (racemic) [MEB-55, (±) 2E-4-methyl-2-(4-methyl-5-oxo-2,5-dihydrofuran-2-yloxymethylene)-6-thiophen-2-yl-1,4-dihydro-2H-cyclopenta[b]indol-3-one]	2.7 ppm	>15 ppm					
										CC1=C[C@H](O/C=C2/C(=O)O[C@@H]3c4ccccc4C[C@H]23)OC1=O (relative stereo) [GR-24, (3aR*,8bS*,E)-3-(((R*)-4-methyl-5-oxo-2,5-dihydrofuran-2-yloxy)methylene)-3,3a,4,8b-tetrahydro-2H-indeno[1,2-b]furan-2-one]			0.008 ± 0.003	0.211 ± 0.078	0.97±0.47	0.16±0.00	
>15 ppm	>15 ppm	>15 ppm	5.0 ppm	5.3 ppm and 5.4 ppm	>15 ppm	>10 ppm	14.4 ppm	>15 ppm	>20 ppm	CC1=CC(O/C=C2/C(=O)c3c(c4cc(-c5cccs5)ccc4n3C)C2C)OC1=O (stereo not shown) [ST-357, (2E)-1,4-dimethyl-2-((4-methyl-5-oxo-2,5-dihydrofuran-2-yloxy)methylene)-7-(thiophen-2-yl)-1,2-dihydrocyclopenta[b]indol-3(4H)-one]	4.5 ppm	>15 ppm	0.460 ± 0.362				
7.5 ppm	4.3 ppm	7.3 ppm	2.9 ppm	>15 ppm	2.9 ppm	8.6 ppm	9.8 ppm	6.0 ppm	8.1 ppm	CC1=CC(O/C=C2/C(=O)c3c(c4cc(-c5scc6c5OCCO6)ccc4n3C)C2C)OC1=O (stereo not shown) [ST-362, (2E)-2-[(2,5-dihydro-4-methyl-5-oxofuran-2-yloxy)methylene]-1,2-dihydro-7-(2,3-dihydrothieno[3,4-b][1,4]dioxin-7-yl)-1,4-dimethyl-cyclopenta[b]indole-3-(4H)-one]	2.8 ppm	>15 ppm	0.008 ± 0.007				1.5 ppm
